According to patent US7951829B2, “Benzimidazole modulators of VR1” (Janssen Pharmaceutica NV, priority 2006, dated 2011):

Target: T1, hVR1 (Homo sapiens, UniProt Q8NER1)
T1 construct: expressed in transfected cells; host or cells: HEK293
Test: Human VR1 (hVR1) Functional Assay (FLIPR intracellular calcium, capsaicin challenge)
Assay type: cell-based
Conditions: capsaicin 0.030 μM, HEK293 cells expressing hVR1; for inhibition at 1 µM: test concentration 1 μM

T1 sequence (Q8NER1 whole entry): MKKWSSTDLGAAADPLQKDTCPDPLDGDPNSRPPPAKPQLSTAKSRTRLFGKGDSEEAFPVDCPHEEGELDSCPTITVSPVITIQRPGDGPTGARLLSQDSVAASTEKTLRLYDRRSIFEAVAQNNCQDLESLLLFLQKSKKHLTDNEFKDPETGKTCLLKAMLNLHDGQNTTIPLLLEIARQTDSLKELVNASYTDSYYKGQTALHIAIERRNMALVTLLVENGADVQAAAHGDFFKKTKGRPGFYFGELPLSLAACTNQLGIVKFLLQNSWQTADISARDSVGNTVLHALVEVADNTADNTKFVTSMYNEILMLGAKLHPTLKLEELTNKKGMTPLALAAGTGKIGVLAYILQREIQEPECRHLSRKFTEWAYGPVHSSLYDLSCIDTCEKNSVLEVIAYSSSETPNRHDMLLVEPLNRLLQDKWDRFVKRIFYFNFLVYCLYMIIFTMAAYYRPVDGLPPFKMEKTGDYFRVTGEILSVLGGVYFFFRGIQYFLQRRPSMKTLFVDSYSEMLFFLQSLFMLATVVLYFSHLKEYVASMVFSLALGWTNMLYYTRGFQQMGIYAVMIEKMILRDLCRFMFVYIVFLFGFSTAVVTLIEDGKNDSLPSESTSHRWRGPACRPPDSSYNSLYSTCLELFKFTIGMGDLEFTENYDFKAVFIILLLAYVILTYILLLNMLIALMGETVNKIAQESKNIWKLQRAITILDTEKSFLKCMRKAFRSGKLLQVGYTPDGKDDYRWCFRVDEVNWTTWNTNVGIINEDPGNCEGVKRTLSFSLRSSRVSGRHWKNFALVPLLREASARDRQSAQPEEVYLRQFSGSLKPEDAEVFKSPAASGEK

NS(=O)(=O)c1ccccc1-c1ccc2[nH]c(/C=C/c3ccc4ccccc4c3)nc2c1 [Cpd 433, (E)-2-[2-(2-naphthalen-2-yl-vinyl)-1H-benzimidazol-5-yl]-benzenesulfonamide]
IC50: 0.01 µM
inhibition at 1 µM: 98%

CS(=O)(=O)Nc1ccccc1-c1cc2nc(/C=C/c3ccc(C(F)(F)F)cc3)[nH]c2cc1F [Cpd 65, (E)-N-(2-{6-fluoro-2-[2-(4-trifluoromethyl-phenyl)-vinyl]-1H-benzimidazol-5-yl}-phenyl)-methanesulfonamide]
inhibition at 1 µM: 0%

NS(=O)(=O)c1ccccc1-c1ccc2[nH]c(/C=C/c3ccccc3C(F)(F)F)nc2c1 [Cpd 364, (E)-2-{2-[2-(2-trifluoromethyl-phenyl)-vinyl]-1H-benzimidazol-5-yl}-benzenesulfonamide]
IC50: 0.065 µM
inhibition at 1 µM: 97%

OCc1ccccc1-c1cc2nc(/C=C/c3ccc(C(F)(F)F)cc3)[nH]c2cc1Cl [Cpd 66, (E)-(2-{6-chloro-2-[2-(4-trifluoromethyl-phenyl)-vinyl]-1H-benzimidazol-5-yl}-phenyl)-methanol]
IC50: 0.048 µM
inhibition at 1 µM: 98%

CC(=O)c1ccccc1-c1cc2nc(/C=C/c3ccc(C(F)(F)F)cc3)[nH]c2cc1Cl [Cpd 67, (E)-1-(2-{6-chloro-2-[2-(4-trifluoromethyl-phenyl)-vinyl]-1H-benzimidazol-5-yl}-phenyl)-ethanone]
IC50: 0.13 µM
inhibition at 1 µM: 98%

NS(=O)(=O)c1ccccc1-c1ccc2[nH]c(/C=C/c3ccc(Cl)c(Cl)c3)nc2c1 [Cpd 427, (E)-2-{2-[2-(3,4-dichloro-phenyl)-vinyl]-1H-benzimidazol-5-yl}-benzenesulfonamide]
IC50: 0.013 µM
inhibition at 1 µM: 98%

NCc1ccccc1-c1ccc2[nH]c(CCc3ccc(C(F)(F)F)cc3)nc2c1 [Cpd 486, 2-{2-[2-(4-trifluoromethyl-phenyl)-ethyl]-1H-benzimidazol-5-yl}-benzylamine]
IC50: > 0.5 µM

CC(C)(C)OC(=O)Nc1ccccc1-c1ccc2[nH]c(/C=C/c3ccc(C(F)(F)F)cc3)nc2c1 [Cpd 479, (E)-(2-{2-[2-(4-trifluoromethyl-phenyl)-vinyl]-1H-benzimidazol-5-yl}-phenyl)-carbamic acid tert-butyl ester]
inhibition at 1 µM: 12%

NS(=O)(=O)c1ccccc1-c1ccc2[nH]c(CCc3ccc(OC(F)(F)F)cc3)nc2c1 [Cpd 129, 2-{2-[2-(4-trifluoromethoxy-phenyl)-ethyl]-1H-benzimidazol-5-yl}-benzenesulfonamide]
IC50: 0.034 µM
inhibition at 1 µM: 96%

CC(C)(O)c1ccccc1-c1ccc2[nH]c(C#Cc3ccc(C(F)(F)F)cc3)nc2c1 [Cpd 492, 2-{2-[2-(4-trifluoromethyl-phenylethynyl)-1H-benzimidazol-5-yl]-phenyl}-propan-2-ol]
IC50: 0.005 µM
inhibition at 1 µM: 99%

CC(C)(O)c1ccccc1-c1ccc2[nH]c(C#Cc3ccccc3)nc2c1 [Cpd 489, 2-[2-(2-phenylethynyl-1H-benzimidazol-5-yl)-phenyl]-propan-2-ol]
IC50: 0.002 µM
inhibition at 1 µM: 96%

NS(=O)(=O)c1ccccc1-c1ccc2[nH]c(CCc3ccccc3)nc2c1 [Cpd 397, 2-(2-phenethyl-1H-benzimidazol-5-yl)-benzenesulfonamide]
IC50: 0.023 µM
inhibition at 1 µM: 99%

Cc1cccc(-c2ccc3[nH]c(CCCc4ccc(C(C)(C)C)cc4)nc3c2)c1 [Cpd 30, 2-[3-(4-tert-butyl-phenyl)-propyl]-5-m-tolyl-1H-benzimidazole]
inhibition at 1 µM: 10%

O=S(=O)(c1ccc(/C=C/c2nc3cc(-c4ccccc4C(F)(F)F)ccc3[nH]2)cc1)C(F)(F)F [Cpd 481, (E)-2-[2-(4-trifluoromethanesulfonyl-phenyl)-vinyl]-5-(2-trifluoromethyl-phenyl)-1H-benzimidazole]
inhibition at 1 µM: 42%

CC(C)(C)C(=O)Nc1ccccc1-c1ccc2[nH]c(/C=C/c3ccc(C(F)(F)F)cc3)nc2c1 [Cpd 460, (E)-2,2-dimethyl-N-(2-{2-[2-(4-trifluoromethyl-phenyl)-vinyl]-1H-benzimidazol-5-yl}-phenyl)-propionamide]
inhibition at 1 µM: 21%

CCOc1ccc(/C=C/c2nc3cc(-c4ccccc4S(N)(=O)=O)ccc3[nH]2)cc1 [Cpd 440, (E)-2-{2-[2-(4-ethoxy-phenyl)-vinyl]-1H-benzimidazol-5-yl}-benzenesulfonamide]
IC50: 0.04 µM
inhibition at 1 µM: 98%

CNS(=O)(=O)c1ccccc1-c1ccc2[nH]c(/C=C/c3ccc(F)c(F)c3)nc2c1 [Cpd 329, (E)-2-{2-[2-(3,4-difluoro-phenyl)-vinyl]-1H-benzimidazol-5-yl}-N-methyl-benzenesulfonamide]
IC50: 0.027 µM
inhibition at 1 µM: 98%

NS(=O)(=O)c1ccccc1-c1ccc2[nH]c(/C=C/c3cc(C(F)(F)F)cc(C(F)(F)F)c3)nc2c1 [Cpd 373, (E)-2-{2-[2-(3,5-bis-trifluoromethyl-phenyl)-vinyl]-1H-benzimidazol-5-yl}-benzenesulfonamide]
IC50: 0.02 µM
inhibition at 1 µM: 99%

CS(=O)(=O)Nc1ccccc1-c1ccc2[nH]c(/C=C/c3ccc(F)c(Br)c3)nc2c1 [Cpd 409, (E)-N-(2-{2-[2-(3-bromo-4-fluoro-phenyl)-vinyl]-1H-benzimidazol-5-yl}-phenyl)-methanesulfonamide]
inhibition at 1 µM: 43%

NS(=O)(=O)c1ccccc1-c1ccc2[nH]c(C3CC3c3ccc(C(F)(F)F)cc3)nc2c1 (centres unmarked) [Cpd 190, 2-{2-[2-(4-trifluoromethyl-phenyl)-cyclopropyl]-1H-benzimidazol-5-yl}-benzenesulfonamide]
IC50: 0.038 µM
inhibition at 1 µM: 94%

NS(=O)(=O)c1ccccc1-c1ccc2[nH]c(/C=C/c3ccc(F)c(F)c3F)nc2c1 [Cpd 370, (E)-2-{2-[2-(2,3,4-trifluoro-phenyl)-vinyl]-1H-benzimidazol-5-yl}-benzenesulfonamide]
IC50: 0.013 µM
inhibition at 1 µM: 98%

NS(=O)(=O)c1ccccc1-c1ccc2[nH]c([C@H]3C[C@@H]3c3ccc(C(F)(F)F)cc3)nc2c1 [Cpd 504, 2-{2-[(1S,2S)-2-(4-trifluoromethyl-phenyl)-cyclopropyl]-1H-benzimidazol-5-yl}-benzenesulfonamide]
IC50: 0.022 µM
inhibition at 1 µM: 95%

CC(=O)c1ccccc1-c1cc2nc(/C=C/c3ccc(C(F)(F)F)cc3)[nH]c2cc1F [Cpd 62, (E)-1-(2-{6-fluoro-2-[2-(4-trifluoromethyl-phenyl)-vinyl]-1H-benzimidazol-5-yl}-phenyl)-ethanone]
IC50: 0.2 µM
inhibition at 1 µM: 100%

NS(=O)(=O)c1ccccc1-c1ccc2[nH]c(/C=C/c3ccc(F)c(F)c3)nc2c1 [Cpd 358, (E)-2-{2-[2-(3,4-difluoro-phenyl)-vinyl]-1H-benzimidazol-5-yl}-benzenesulfonamide]
IC50: 0.009 µM
inhibition at 1 µM: 99%

CC(=O)Nc1ccccc1-c1cc2nc(/C=C/c3ccc(C(F)(F)F)cc3)[nH]c2cc1F [Cpd 64, (E)-N-(2-{6-fluoro-2-[2-(4-trifluoromethyl-phenyl)-vinyl]-1H-benzimidazol-5-yl}-phenyl)-acetamide]
inhibition at 1 µM: 41%

CC(C)c1ccc(CCc2nc3cc(-c4ccccc4S(N)(=O)=O)ccc3[nH]2)cc1 [Cpd 442, 2-{2-[2-(4-isopropyl-phenyl)-ethyl]-1H-benzimidazol-5-yl}-benzenesulfonamide]
IC50: 0.004 µM
inhibition at 1 µM: 96%
